From ChEMBL document CHEMBL1201862, “PubChem BioAssay data set” (2004)
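All cell lines were grown in 96-well plates and treated with compound for 48 hours. GI50 = concentration required for 50% inhibition of growth.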 The source made the active and inactive calls. No stated cut-off is given here; in the data, active = GI50 up to about 1.1 µM and inactive = higher.

Experiments:
Experiment in all cases: DTP human tumour cell line panel, 48 h
786-0 = tested on: 786-0
A549 = tested on: A549
ACHN = tested on: ACHN
BT-549 = tested on: BT-549
CAKI-1 = tested on: CAKI-1
CCRF-CEM = tested on: CCRF-CEM
COLO 205 = tested on: COLO 205
DU-145 = tested on: DU-145
EKVX = tested on: EKVX
HCC 2998 = tested on: HCC 2998
HCT-116 = tested on: HCT-116
HCT-15 = tested on: HCT-15
HL-60 = tested on: HL-60
HOP-62 = tested on: HOP-62
HOP-92 = tested on: HOP-92
HT-29 = tested on: HT-29
Hs-578T = tested on: Hs-578T
IGROV-1 = tested on: IGROV-1
K562 = tested on: K562
KM12 = tested on: KM12
LOX IMVI = tested on: LOX IMVI
M14 = tested on: M14
MCF7 = tested on: MCF7
MDA-MB-231 = tested on: MDA-MB-231
MDA-MB-435 = tested on: MDA-MB-435
MDA-N = tested on: MDA-N
MOLT-4 = tested on: MOLT-4
Malme-3M = tested on: Malme-3M
NCI-H226 = tested on: NCI-H226
NCI-H23 = tested on: NCI-H23
NCI-H460 = tested on: NCI-H460
NCI-H522 = tested on: NCI-H522
NCI/ADR-RES = tested on: NCI/ADR-RES
OVCAR-3 = tested on: OVCAR-3
OVCAR-4 = tested on: OVCAR-4
OVCAR-5 = tested on: OVCAR-5
OVCAR-8 = tested on: OVCAR-8
PC-3 = tested on: PC-3
RPMI-8226 = tested on: RPMI-8226
RXF 393 = tested on: RXF 393
SF-268 = tested on: SF-268
SF-295 = tested on: SF-295
SF-539 = tested on: SF-539
SK-MEL-28 = tested on: SK-MEL-28
SK-MEL-2 = tested on: SK-MEL-2
SK-MEL-5 = tested on: SK-MEL-5
SK-OV-3 = tested on: SK-OV-3
SN12C = tested on: SN12C
SNB-19 = tested on: SNB-19
SNB-75 = tested on: SNB-75
SR = tested on: SR
SW-620 = tested on: SW-620
T47D = tested on: T47D
TK-10 = tested on: TK-10
U-251 = tested on: U-251
UACC-257 = tested on: UACC-257
UACC-62 = tested on: UACC-62
UO-31 = tested on: UO-31
A498 = tested on: A498

Measured: GI50

Cc1c(-c2ccccc2)[nH]c2ccc(Cl)cc2c1=O
active: A549 0.0232 µM | CAKI-1 < 0.01 µM | KM12 0.263 µM | NCI-H460 0.314 µM | UO-31 0.252 µM
28.7 µM: HCT-15
inactive: 786-0 29.8 µM | ACHN 29 µM | BT-549 62.2 µM | CCRF-CEM 55.8 µM | COLO 205 70.6 µM | DU-145 70 µM | EKVX 47.4 µM | HCC 2998 23.2 µM | HCT-116 17.6 µM | HL-60 24.2 µM | HOP-62 19.1 µM | HOP-92 20.4 µM | HT-29 40.8 µM | Hs-578T 30.5 µM | IGROV-1 33.9 µM | K562 8.87 µM | LOX IMVI 27.9 µM | M14 34.7 µM | MCF7 25.2 µM | MDA-MB-231 19 µM | MDA-MB-435 16.4 µM | MDA-N 17.4 µM | MOLT-4 22 µM | Malme-3M 18.3 µM | NCI-H226 30.4 µM | NCI-H23 23.4 µM | NCI-H522 21.3 µM | NCI/ADR-RES 29.5 µM | OVCAR-3 17.1 µM | OVCAR-4 21.8 µM | OVCAR-5 61.9 µM | OVCAR-8 22.3 µM | PC-3 47.6 µM | RPMI-8226 15.2 µM | RXF 393 20 µM | SF-268 30.6 µM | SF-295 30.8 µM | SF-539 22.2 µM | SK-MEL-28 40.6 µM | SK-MEL-2 18 µM | SK-MEL-5 13.3 µM | SK-OV-3 21.7 µM | SN12C > 100 µM | SNB-19 > 100 µM | SNB-75 26 µM | SR 12.2 µM | SW-620 75.2 µM | T47D 19.4 µM | TK-10 36.6 µM | U-251 22.9 µM | UACC-257 27.8 µM | UACC-62 34.8 µM

NC(CCCCP(=O)(O)O)C(=O)O (stereo not drawn)
inactive: A549 > 100 µM | ACHN > 100 µM | BT-549 > 100 µM | CAKI-1 14.3 µM | CCRF-CEM > 100 µM | COLO 205 > 100 µM | DU-145 > 100 µM | EKVX > 100 µM | HCC 2998 > 100 µM | HCT-116 > 100 µM | HL-60 > 100 µM | HOP-92 > 100 µM | HT-29 > 100 µM | Hs-578T > 100 µM | IGROV-1 > 100 µM | K562 > 100 µM | KM12 > 100 µM | LOX IMVI > 100 µM | M14 > 100 µM | MDA-MB-231 > 100 µM | MDA-MB-435 > 100 µM | MDA-N > 100 µM | MOLT-4 > 100 µM | NCI-H23 > 100 µM | NCI-H460 > 100 µM | NCI-H522 26.9 µM | NCI/ADR-RES > 100 µM | OVCAR-3 > 100 µM | OVCAR-4 > 100 µM | OVCAR-5 > 100 µM | OVCAR-8 > 100 µM | PC-3 > 100 µM | RPMI-8226 > 100 µM | RXF 393 > 100 µM | SF-268 > 100 µM | SF-295 > 100 µM | SF-539 > 100 µM | SK-MEL-28 > 100 µM | SK-MEL-2 > 100 µM | SK-MEL-5 > 100 µM | SK-OV-3 > 100 µM | SN12C > 100 µM | SNB-19 > 100 µM | SNB-75 > 100 µM | SR > 100 µM | SW-620 > 100 µM | T47D > 100 µM | TK-10 > 100 µM | U-251 > 100 µM | UACC-257 > 100 µM | UACC-62 > 100 µM | UO-31 > 100 µM
> 100 µM: HCT-15

Cc1ccc([N+](=O)[O-])cc1S(=O)(=O)Nc1ccc(C2=NN(C(=O)c3ccccc3)C(c3cccs3)C2)cc1 (stereo not drawn)
21 µM: HCT-15
inactive: 786-0 17.9 µM | A498 10.5 µM | A549 19.5 µM | ACHN 25.4 µM | BT-549 25.3 µM | CAKI-1 26.2 µM | CCRF-CEM 37.8 µM | COLO 205 16.9 µM | DU-145 34.2 µM | EKVX 21.5 µM | HCT-116 22.3 µM | HL-60 26.3 µM | HOP-62 20.9 µM | HOP-92 12.6 µM | HT-29 26.3 µM | Hs-578T 27 µM | IGROV-1 16.9 µM | K562 22.1 µM | KM12 32.7 µM | LOX IMVI 30.8 µM | M14 24.1 µM | MCF7 18.1 µM | MDA-MB-231 16.3 µM | MDA-MB-435 33.1 µM | MDA-N 23.8 µM | MOLT-4 20.4 µM | Malme-3M 19.1 µM | NCI-H226 21.5 µM | NCI-H23 15.6 µM | NCI-H522 12.9 µM | NCI/ADR-RES 30.9 µM | OVCAR-3 13 µM | OVCAR-4 25.6 µM | OVCAR-5 42.5 µM | OVCAR-8 22.4 µM | PC-3 21.9 µM | RPMI-8226 31.6 µM | RXF 393 15.2 µM | SF-268 20 µM | SF-295 21 µM | SF-539 18.2 µM | SK-MEL-28 63.5 µM | SK-MEL-2 14.9 µM | SK-MEL-5 13.6 µM | SK-OV-3 20.6 µM | SN12C 22.4 µM | SNB-19 33 µM | SNB-75 20.2 µM | SR 28.8 µM | SW-620 45.5 µM | T47D 9.42 µM | TK-10 21.4 µM | U-251 20.8 µM | UACC-257 21.5 µM | UO-31 24 µM

CC(=O)Oc1ccc(C)c2c1[C@H]1CC[C@]3(C)[C@@H](OC(C)=O)CC[C@H]3[C@@H]1CC2
inactive: 786-0 21.3 µM | A498 17.6 µM | A549 20.5 µM | ACHN 16.2 µM | BT-549 17.5 µM | CCRF-CEM 21.9 µM | DU-145 26.9 µM | EKVX 15.5 µM | HCC 2998 18 µM | HCT-116 17 µM | HL-60 20.7 µM | HOP-62 18.1 µM | HOP-92 16.9 µM | HT-29 17.1 µM | Hs-578T 23 µM | IGROV-1 18.7 µM | K562 23.4 µM | KM12 18.6 µM | LOX IMVI 17 µM | M14 17.5 µM | MCF7 23.6 µM | MDA-MB-231 18.2 µM | MDA-MB-435 17.9 µM | MDA-N 18.5 µM | MOLT-4 16 µM | Malme-3M 15.7 µM | NCI-H226 21.8 µM | NCI-H23 16.8 µM | NCI-H460 20 µM | NCI-H522 17.7 µM | NCI/ADR-RES 18.2 µM | OVCAR-3 18.2 µM | OVCAR-5 > 100 µM | OVCAR-8 22.4 µM | RPMI-8226 19.4 µM | RXF 393 19.1 µM | SF-268 26.7 µM | SF-295 23.9 µM | SF-539 19.6 µM | SK-MEL-28 17.3 µM | SK-MEL-5 19.5 µM | SN12C 18.8 µM | SNB-19 17.9 µM | SNB-75 24.9 µM | SR 34.1 µM | SW-620 18.9 µM | T47D 19.3 µM | TK-10 26.5 µM | U-251 15.2 µM | UACC-257 17.9 µM | UACC-62 19.9 µM | UO-31 39.3 µM
17.8 µM: HCT-15

CC(ON(C(c1ccccc1)C(C)C)C(C)(C)C)c1ccccc1 (stereo not drawn)
inactive: 786-0 16.4 µM | A549 29.6 µM | ACHN 15.8 µM | BT-549 12.6 µM | CAKI-1 21.7 µM | CCRF-CEM 19.1 µM | COLO 205 17.3 µM | DU-145 18.5 µM | EKVX 15.4 µM | HCC 2998 17.3 µM | HCT-116 14.7 µM | HL-60 18.7 µM | HOP-62 19.4 µM | HOP-92 20.6 µM | HT-29 18.9 µM | Hs-578T 29 µM | IGROV-1 23.1 µM | K562 18.9 µM | KM12 18.4 µM | LOX IMVI 18.4 µM | M14 22.7 µM | MCF7 16.4 µM | MDA-MB-231 21.1 µM | MDA-MB-435 25.5 µM | MDA-N 25.8 µM | MOLT-4 15 µM | Malme-3M 38.3 µM | NCI-H226 19 µM | NCI-H23 18.7 µM | NCI-H460 18.1 µM | NCI-H522 26.5 µM | NCI/ADR-RES 23.1 µM | OVCAR-3 16.4 µM | OVCAR-4 27 µM | OVCAR-5 16 µM | OVCAR-8 21.8 µM | PC-3 33.8 µM | RPMI-8226 29.5 µM | RXF 393 16.3 µM | SF-268 24.4 µM | SF-295 14.9 µM | SF-539 21.6 µM | SK-MEL-28 20.4 µM | SK-MEL-2 18.4 µM | SK-MEL-5 14.4 µM | SK-OV-3 39.3 µM | SN12C 16.8 µM | SNB-19 18.5 µM | SNB-75 25.1 µM | SR 23 µM | SW-620 16.2 µM | T47D 25.9 µM | TK-10 22.4 µM | U-251 17 µM | UACC-257 17.2 µM | UACC-62 15.9 µM | UO-31 24.5 µM
61.8 µM: HCT-15
